From patent US12187672B2, “1,2-diacylglycerol compound, preparation method therefor, and immunomodulator containing same as active ingredient” (ENZYCHEM LIFESCIENCES CORPORATION, priority 2018, dated 2025)
Where “and” joins values, the source holds several entries; their conditions need not be identical. Equal entries are not always repeated.

Experiments:
[1] = test system: STAT3; test: STAT3 activity, pGL4.47 SIE luciferase reporter in LPS-treated RAW264.7 cells; type: cell-based, mouse; settings: sample 100 μg/ml 1 h, then LPS 1 μg/ml 18 h
Method: pGL4.47 [luc2P/SIE/Hygro] vector containing the sis-Inducible Element that binds to STAT3 was injected into RAW264.7 cells to confirm the degree of STAT3 activity. In DMEM (Hyclone, Thermo Scientific) medium to which 10% Fetal Bovine Serum was added, RAW264.7 cells were cultured at a concentration of 1×10^5 cells/ml, and maintained in a 5% CO2 humidified incubator at 37° C. The cultured RAW264.7 cells were inoculated into a 48 well plate by 1×10^5 cells/ml and stabilized for 18 hours. Thereafter, the pGL4.47 [luc2P/SIE/Hygro] vector containing sis-Inducible Element was mixed with Attractene to induce complex formation at room temperature for 15 minutes. This complex was treated with the cells and then further incubated for 18 hours. Thereafter, the culture solution was treated with a glycerol derivative compounds of the type shown in Table 5 below for 1 hour and then LPS (1 μg/ml) was treated and further incubated for 18 hours for STAT3 activity. Thereafter, the culture supernatant was removed for each well, and the remaining cells were lysed with a cell lysis buffer, and then cell lysate was recovered. 90 μl of luciferase reagent was mixed with 10 μl of the recovered cell lysate, and the degree of fluorescence was confirmed using a luminometer.

[2] = test system: STAT3; test: IL-6-induced STAT3 activity, SEAP expression in HEK-Blue IL-6 cells; type: cell-based; settings: HEK-Blue IL-6 cells; for STAT3 activity_SEAP expression(%) (average ± deviation): sample 100 μg/ml 1 h, then IL-6 5 ng/ml 24 h, negative control = 100
Method: HEK-Blue™ IL-6 cells were used to confirm STAT3 activity by STAT3-induced SEAP (secreted embryonic alkaline phosphatase) expression. In DMEM (Hyclone, Thermo Scientific) medium to which 10% Fetal Bovine Serum was added, HEK-Blue™ IL-6 cells were cultured at a concentration of 1×10^5 cells/ml, and maintained in a 5% CO2 humidified incubator at 37° C. The cultured HEK-Blue™ IL-6 cells were inoculated by 1×10^5 cells/ml. Then, the culture solution was treated with a glycerol derivative compounds of the type shown in Table 4 below for 1 hour and then IL-6 (5 ng/ml) was further incubated for 24 hours for STAT3 activity. Thereafter, the culture supernatant was collected for each well and centrifuged (at 3000 rpm, 5 minutes) to recover the supernatant. The SEAP expression level in the recovered supernatant was mixed with Quanti blue reagent and the supernatant at a ratio of 1:10 and left at 37° C. for about 30 minutes. Then, the SEAP concentration was confirmed at 650 nm wavelength using a spectrophotometer, and the results (STAT3 activity inhibitory ability) thereof are shown in Table 4 and FIG. 3 below.

[3] = test system: IL-4; test: PKC activator-induced IL-4 secretion reduction in EL-4 cells (ELISA); type: cell-based, mouse; settings: for IL-4 concentration (average ± deviation): sample 100 μg/ml 2 h, then PKC activator 18 h; for decrease of IL-4 secretion/expression: PKC activator-treated, 100 μg/ml
How it was run: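 Mouse EL-4 lymphoma cells in DMEM/10% FBS pretreated 2 h with compound, then stimulated with 0.5 μg/ml PKC activator (PMA type) for 18 h at 37 °C. Secreted IL-4 in supernatant quantified by sandwich ELISA (OD 450 nm) and expressed as reduction rate.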

[4] = test system: Aeruginosa K (PAK) of the genus Psuedomonas; test: Infection inhibition test in mouse model of lung infection with bacteria (CFU in BALF); type: in vivo, Balb/c mice; settings: 250 mg/kg oral
Method: For getting mice model whose lung are infected with bacteria, 12-week old Balb/c male mice were purchased from Koatech Corporation (South Korea) and maintained in certain pathogen-free facilities under moderate temperature and lights cycles. For obtain bacteria to induce lung infection, Aeruginosa K (PAK) of the genus Psuedomonas was incubated in LB broth or LB agar plate overnight at 37° C., and then the culture solution was centrifuged at 13,000×g for 2 minutes to obtain a bacterial pellet. Thereafter, the bacterial pellet was suspended in phosphate buffered saline (PBS), and the optical density of the serial dilution was measured and plated on an agar plate, so that bacterial inoculum having a colony forming unit (CFU) was obtained. A bacterial inoculum solution for infection was prepared at a concentration of 1×10^5 CFU per 20 μl, and the prepared PAK bacterial inoculum (1×10^5 CFU per mouse in 20 μl PBS) was administered to a total of 8 12-week-old Balb/c mice by nasal injection. Four of the PAK-administered groups were orally administered the compound of the present invention (EC_A21) at 250 mg/kg, and PBS was administered to the control group. After 4 hours, samples of bronchoalveolar lavage fluid (BALF) from P. aeruginosa-infected mice were collected, and the collected BALF samples were diluted 1:1000 with PBS. The diluted samples were plated on LB agar and then incubated overnight at 37° C. CFU levels in BALF were confirmed by measuring the number of surviving bacteria by a plate count method. The results are shown in Table 8, FIG. 7 and FIG. 8 below.

## CCCCC/C=C\C/C=C\CCCCCCCC(=O)OC(COC(C)=O)COC(=O)CCCCCCCCCCCCCCC (stereo not shown) [EC-18, 1-palmitoyl-2-linoleoyl-3-acetylglycerol, reference compound]
[1]
  STAT3 activity_Luciferase activity (average ± deviation): 491.5 ± 41.7
[2]; 100 μg/ml
  decrease of STAT3 activity compared to the IL-6 cytokine-treated group: about 25%
[2]
  STAT3 activity_SEAP expression(%) (average ± deviation): 173.0 ± 7.9%
[3]; Table 11
  IL-4 concentration (average ± deviation): 662.4 ± 42.4 pg/µL
[3]; Table 12
  IL-4 concentration (average ± deviation): 429.2 ± 7.0 pg/µL

## CCCCC/C=C\C/C=C\CCCCCCCC(=O)OC(COC(=O)CCCCCCCCCCCCCCC)COC(C)C (stereo not shown) [EC_A21]
[4]; PAK 1×10^5 CFU nasal, BALF after 4 hours, 4 Balb/c mice
  bacterial CFU in BALF, average ± deviation: 14.0 ± 6.0 10^3 CFU/ml
[4]; PAK 1×10^5 CFU nasal, BALF after 4 hours, Balb/c mice, 250 mg/kg
  bacterial CFU in BALF, individual mouse: 8.0 10^3 CFU/ml and 19.0 10^3 CFU/ml and 20.0 10^3 CFU/ml and 14.0 10^3 CFU/ml
[4]; fourth hour after PAK administration
  bacterial CFU in BALF versus PAK alone group (in words): significantly lower than that of the PAK alone group
[2]
  STAT3 activity_SEAP expression(%) (average ± deviation): 224.1 ± 22.4%
[3]; Table 11
  IL-4 concentration (average ± deviation): 488.8 ± 46.2 pg/µL

## CCCCC/C=C\C/C=C\CCCCCCCC(=O)OC(COC(=O)CCCC)COC(=O)CCCCCCCCC (stereo not shown) [EC_A99]
[1]
  STAT3 activity_Luciferase activity (average ± deviation): 353.2 ± 83.0
[3]; Table 12
  IL-4 concentration (average ± deviation): 553.3 ± 39.8 pg/µL

## CCCCCC=CCC=CCCCCCCCC(=O)OC(COC(=O)CCCCCCC)COC(=O)C(C)(C)C (stereo not shown) [EC_A89]
[1]
  STAT3 activity_Luciferase activity (average ± deviation): 1087.7 ± 257.7
[3]; Table 12
  IL-4 concentration (average ± deviation): 620.1 ± 22.4 pg/µL

## CCCCC/C=C\C/C=C\CCCCCCCC(=O)OC(COC(=O)CCCCCC)COC(=O)CCCCCCCCCCCCCCC (stereo not shown) [EC_A83]
[1]
  STAT3 activity_Luciferase activity (average ± deviation): 510.2 ± 27.2
[3]; Table 12
  IL-4 concentration (average ± deviation): 637.9 ± 14.1 pg/µL

## CCCCC/C=C\C/C=C\CCCCCCCC(=O)OC(COC(=O)CCC)COC(=O)CCCCCCC (stereo not shown) [EC_A85]
[1]
  STAT3 activity_Luciferase activity (average ± deviation): 1126.7 ± 32.1
[3]
  decrease of IL-4 secretion/expression: about 20%
[3]; Table 12
  IL-4 concentration (average ± deviation): 485.1 ± 19.2 pg/µL

## CCCCC/C=C\C/C=C\CCCCCCCC(=O)OC(COC(=O)CCCC)COC(=O)CCCCCCCCCCC (stereo not shown) [EC_A93]
[1]
  STAT3 activity_Luciferase activity (average ± deviation): 536.2 ± 222.3
[3]
  decrease of IL-4 secretion/expression: about 20%
[3]; Table 12
  IL-4 concentration (average ± deviation): 507.9 ± 3.85 pg/µL

## CCCCC/C=C\C/C=C\CCCCCCCC(=O)OC(COC(=O)CC)COC(=O)CCCCCCCCCCCCCCC (stereo not shown) [EC_A78]
[1]
  STAT3 activity_Luciferase activity (average ± deviation): 912.5 ± 214.2
[3]; Table 12
  IL-4 concentration (average ± deviation): 557 ± 11.5 pg/µL

## CCCCC/C=C\C/C=C\CCCCCCCC(=O)OC(COC(=O)CCCCCCCCC)COC(=O)C(C)(C)C (stereo not shown) [EC_A101]
[1]
  STAT3 activity_Luciferase activity (average ± deviation): 581.7 ± 8.1
[3]; Table 12
  IL-4 concentration (average ± deviation): 634.7 ± 3.21 pg/µL

## CCCCC/C=C\C/C=C\CCCCCCCC(=O)OC(COC(=O)CCCC)COC(=O)CCCCCCC (stereo not shown) [EC_A86]
[1]
  STAT3 activity_Luciferase activity (average ± deviation): 866.2 ± 15.2
[3]
  decrease of IL-4 secretion/expression: about 20%
[3]; Table 12
  IL-4 concentration (average ± deviation): 476.0 ± 2.5 pg/µL

## CCCCC/C=C\C/C=C\CCCCCCCC(=O)OC(COC(=O)CC)COC(=O)CCCCCCCCCCC (stereo not shown) [EC_A91]
[1]
  STAT3 activity_Luciferase activity (average ± deviation): 746.5 ± 26.1
[3]
  decrease of IL-4 secretion/expression: about 20%
[3]; Table 12
  IL-4 concentration (average ± deviation): 446.0 ± 16.7 pg/µL

## CCCCC/C=C\C/C=C\CCCCCCCC(=O)OC(COC(=O)CCC)COC(=O)CCCCCCCCC (stereo not shown) [EC_A98]
[1]
  STAT3 activity_Luciferase activity (average ± deviation): 370.7 ± 35.0
[3]; Table 12
  IL-4 concentration (average ± deviation): 584.2 ± 50.1 pg/µL

## CCCCC/C=C\C/C=C\CCCCCCCC(=O)OC(COC(=O)CCCCCCCCCCCCCCC)COC(=O)C1CC1 (stereo not shown) [EC_A79]
[1]
  STAT3 activity_Luciferase activity (average ± deviation): 1183.5 ± 51.6
[3]; Table 12
  IL-4 concentration (average ± deviation): 527 ± 17.9 pg/µL

## CCCCC/C=C\C/C=C\CCCCCCCC(=O)OC(COC(=O)CC)COC(=O)CCCCCCCCC (stereo not shown) [EC_A97]
[1]
  STAT3 activity_Luciferase activity (average ± deviation): 573.2 ± 146.7
[3]; Table 12
  IL-4 concentration (average ± deviation): 541.5 ± 20.5 pg/µL

## CCCCC/C=C\C/C=C\CCCCCCCC(=O)OC(COC(=O)CC)COC(=O)CCCCCCC (stereo not shown) [EC_A87]
[1]
  STAT3 activity_Luciferase activity (average ± deviation): 1312 ± 34.6
[3]
  decrease of IL-4 secretion/expression: about 20%
[3]; Table 12
  IL-4 concentration (average ± deviation): 511.0 ± 0.6 pg/µL

## CCCCC/C=C\C/C=C\CCCCCCCC(=O)OC(COC(=O)CCCCCCCCC)COC(=O)C(C)C (stereo not shown) [EC_A100]
[1]
  STAT3 activity_Luciferase activity (average ± deviation): 572.2 ± 60.4
[3]; Table 12
  IL-4 concentration (average ± deviation): 539.7 ± 6.4 pg/µL

## CCCCC/C=C\C/C=C\CCCCCCCC(=O)OC(COC(=O)CCC)COC(=O)CCCCCCCCCCC (stereo not shown) [EC_A92]
[1]
  STAT3 activity_Luciferase activity (average ± deviation): 820 ± 448.3
[3]
  decrease of IL-4 secretion/expression: about 20%
[3]; Table 12
  IL-4 concentration (average ± deviation): 498.3 ± 45.6 pg/µL

## CCCCC/C=C\C/C=C\CCCCCCCC(=O)OC(COC(=O)CCCCCCC)COC(=O)C(C)C (stereo not shown) [EC_A88]
[1]
  STAT3 activity_Luciferase activity (average ± deviation): 1171.5 ± 146.3
[3]; Table 12
  IL-4 concentration (average ± deviation): 654.7 ± 0.6 pg/µL

## CCCCC/C=C\C/C=C\CCCCCCCC(=O)OC(COC(=O)CCCCCCCCCCC)COC(=O)C(C)CC (stereo not shown) [EC_A96]
[1]
  STAT3 activity_Luciferase activity (average ± deviation): 1136.7 ± 63.9
[3]; Table 12
  IL-4 concentration (average ± deviation): 582.9 ± 17.3 pg/µL

## CCCCC/C=C\C/C=C\CCCCCCCC(=O)OC(COC(=O)CCCCCCCCC)COC(=O)C(C)CC (stereo not shown) [EC_A102]
[1]
  STAT3 activity_Luciferase activity (average ± deviation): 602 ± 11.3
[3]; Table 12
  IL-4 concentration (average ± deviation): 775.1 ± 11.5 pg/µL
